The text below walks through data of patent US5965718A, “Analogs of sarcodictyin and eleutherobin” (priority 1998, dated 1999).

“Also recorded” adds a separate entry of the source.

Series [1] deals with tubulin; ovarian cancer cells (1A9, 1A9PTX10, 1A9PTX22). The settings on record: in words; for biological activity (tubulin polymerization and/or cytotoxicity), SAR statement: compared with natural products 7 and 8; for biological activity on modification of the alcohol component of the ester group: compared with the methyl ester (compound 600). The procedure:
(§1) FIG. 21 tabulates cytotoxicity data of sarcodictyins with the following tubulin polymerization and cytotoxicity properties of sarcodictyins: (a) The tubulin polymerization measurements were performed at 37° C. except for adjustments in drug concentration ([…]) and incubation time (90 min). (b) The cytotoxicity experiments were carried out as previously described (Giannakakou et al. J. Biol. Chem. 1995, 272, 17118-17125; Nicolaou et al. Angew. Chem. Int. Ed. Engl. 1997, 36, 2097-2103).
(§2) The synthesized sarcodictyin library (shown in FIG. 20) was screened for induction of tubulin polymerization using the filtration calorimetric assay and […] at 37° C. (results are listed in FIG. 20; Bollag et al. Cancer Res. 1995, 55, 2325-2333). These investigations were then followed by cytotoxicity studies with ovarian cancer cells (1A9) including two taxol-resistant lines (1A9PTX10 and 1A9PTX22; Giannakakou et al. J. Biol. Chem. 1995, 272, 17118-17125). The data reveal a number of important structure activity relationships (SARs).

Another series has as its system tubulin. Kind of series: induction of tubulin polymerization, filtration calorimetric assay. The series is classed as biochemical. Particulars: 100 m compound at 37° C.; in words, compared with sarcodictyins A (7) and B (8); figures only in FIG. 20. As for the experimental part: as §1, §2
In series [2] the test system is ovarian cancer cells (1A9). The series is classed as cell-based. Particulars: 1A9 and taxol-resistant lines; in words, compared with natural substances 7 and 8; figures only in FIG. 21. As for the experimental part: as §1, §2
For series [3], the system named is taxol-resistant lines (1A9PTX10 and 1A9PTX22). Kind of series: cytotoxicity against taxol-resistant tumor cell lines. The series is classed as cell-based. The settings on record: in words. The procedure:
as §1, §2

With `COC(=O)/C1=C/[C@@H]2[C@@H](C(C)C)CC=C(C)[C@@H]2C[C@H](OC(=O)/C=C/c2ccccn2)[C@]2(C)C=C[C@@]1(OC)O2` [Compound 480], the “biological activity (tubulin polymerization and/or cytotoxicity), SAR statement” value (shortened to “biological activity … SAR statement”) in series [1] is “considerable loss of activity”.

`COC(=O)/C1=C/[C@@H]2[C@@H](C(C)C)CC=C(C)[C@@H]2C[C@H](OC(=O)/C=C/c2csc(C)n2)[C@]2(C)C=C[C@@]1(OC)O2` [Compound 490]: the “biological activity … SAR statement” value in series [1] is “considerable loss of activity”.

Regarding `CCOC(=O)/C1=C/[C@@H]2[C@@H](C(C)C)CC=C(C)[C@@H]2C[C@H](OC(=O)/C=C/c2coc(C)n2)[C@]2(C)C=C[C@@]1(OC)O2` [Compound 500], the “biological activity … SAR statement” value in series [1] was “considerable loss of activity”.

With `COC(=O)C1=CC2C(CC(OC(=O)/C=C/c3cn(C)cn3)C3(C)C=CC1(OC)O3)C(C)=CCC2C(C)C` (stereo not drawn) [Compound 600], the “tubulin polymerization properties / potencies” value in the series with tubulin is “superior tubulin polymerization properties to those of either sarcodictyins A (7) or B (8)”. In series [2], the cytotoxicity potency result is “potencies comparable or higher that those of the natural substances”. Moreover, the “biological activity … SAR statement” value in series [1] is “equal or superior biological activities”. Also, in series [3], the “cytotoxicity / biological activity against the taxol-resistant cell lines” value (“cytotoxicity / biological activity” below) is “Particularly striking; also recorded: enhanced biological activity”.

With `CCOC(=O)C1=CC2C(CC(OC(=O)/C=C/c3cn(C)cn3)C3(C)C=CC1(OC)O3)C(C)=CCC2C(C)C` (stereo not drawn) [Compound 610], the “tubulin polymerization properties / potencies” value in the series on tubulin was “not always in line with their cytotoxicity effects”. Further, the cytotoxicity potency entry in series [2] was “potencies comparable or higher that those of the natural substances”. In series [1], the “biological activity … SAR statement” value was “equal or superior biological activities” and the “biological activity on modification of the alcohol component of the ester group” value (“biological activity on modification” below) is “enhancement of the biological activity”. Besides, in series [3], the “cytotoxicity / biological activity” value is “Particularly striking; also recorded: enhanced biological activity”.

Consider `CO[C@]12C=C[C@](C)(O1)[C@@H](OC(=O)/C=C/c1cn(C)cn1)C[C@H]1C(C)=CC[C@H](C(C)C)[C@H]1/C=C\2C(=O)OCCCl` [Compound 630], for which the cytotoxicity potency entry in series [2] is listed as “potencies comparable or higher that those of the natural substances”. For the same compound, in series [1], the “biological activity … SAR statement” value is listed as “equal or superior biological activities” and the “biological activity on modification” value is recorded as “reversal of the trend”.

On to `CO[C@]12C=C[C@](C)(O1)[C@@H](OC(=O)/C=C/c1cn(C)cn1)C[C@H]1C(C)=CC[C@H](C(C)C)[C@H]1/C=C\2C(=O)OCCCCc1ccccc1` [Compound 660], for which, in the series on tubulin, the “tubulin polymerization properties / potencies” value is recorded as “modest”. The cytotoxicity potency entry in series [2] is given as “cytotoxicity comparable to, or better than, the natural products”.

With `CCCCOC(=O)/C1=C/[C@@H]2[C@@H](C(C)C)CC=C(C)[C@@H]2C[C@H](OC(=O)/C=C/c2cn(C)cn2)[C@]2(C)C=C[C@@]1(OC)O2` [Compound 670], the “cytotoxicity / biological activity” value in series [3] is on record as “Particularly striking”.

Take `CCCOC(=O)/C1=C/[C@@H]2[C@@H](C(C)C)CC=C(C)[C@@H]2C[C@H](OC(=O)/C=C/c2cn(C)cn2)[C@]2(C)C=C[C@@]1(OC)O2` [Compound 680]: in series [1], the “biological activity on modification” value is “enhancement of the biological activity”. Moreover, in series [3], the “cytotoxicity / biological activity” value is reported as “Particularly striking”.

On to `CO[C@]12C=C[C@](C)(O1)[C@@H](OC(=O)/C=C/c1cn(C)cn1)C[C@H]1C(C)=CC[C@H](C(C)C)[C@H]1/C=C\2C(=O)OCCOCc1ccccc1` [Compound 690], for which the “tubulin polymerization properties / potencies” value in the series with tubulin is reported as “modest”. Besides, in series [2], the cytotoxicity potency result is given as “cytotoxicity comparable to, or better than, the natural products”.

On to `C=CCOC(=O)/C1=C/[C@@H]2[C@@H](C(C)C)CC=C(C)[C@@H]2C[C@H](OC(=O)/C=C/c2cn(C)cn2)[C@]2(C)C=C[C@@]1(OC)O2` [Compound 700], for which the “tubulin polymerization properties / potencies” value in the series with tubulin is given as “not always in line with their cytotoxicity effects”. Moreover, the “biological activity on modification” value in series [1] is on record as “enhancement of the biological activity”.

For the compound `CO[C@]12C=C[C@](C)(O1)[C@@H](OC(=O)/C=C/c1cn(C)cn1)C[C@H]1C(C)=CC[C@H](C(C)C)[C@H]1/C=C\2C(=O)OCCC(C)C` [Compound 710], in series [1], the “biological activity on modification” value is given as “reversal of the trend”.

With `COC(OC)/C1=C/[C@@H]2[C@@H](C(C)C)CC=C(C)[C@@H]2C[C@H](OC(=O)/C=C/c2cn(C)cn2)[C@]2(C)C=C[C@@]1(OC)O2` [Compound 730], in series [2], the cytotoxicity potency entry was “potencies comparable or higher that those of the natural substances”. Also, the “cytotoxicity / biological activity” value in series [3] is given as “Particularly striking”.

For `CCCOC(=O)/C1=C/[C@@H]2[C@@H](C(C)C)CC=C(C)[C@@H]2C[C@H](OC(=O)/C=C/c2cn(C)cn2)[C@]2(C)C=C[C@@]1(OCC(F)(F)F)O2` [Compound 840], the cytotoxicity potency result in series [2] is on record as “overall decrease of cytotoxicity”.

Consider `CCO[C@]12C=C[C@](C)(O1)[C@@H](OC(=O)/C=C/c1cn(C)cn1)C[C@H]1C(C)=CC[C@H](C(C)C)[C@H]1/C=C\2C(=O)OC` [Compound 850], for which the “tubulin polymerization properties / potencies” value in the series with tubulin is reported as “superior tubulin polymerization properties to those of either sarcodictyins A (7) or B (8)”. The cytotoxicity potency entry in series [2] is recorded as “potencies comparable or higher that those of the natural substances”. Moreover, the “biological activity … SAR statement” value in series [1] was “equal or superior biological activities”. In series [3], the “cytotoxicity / biological activity” value is “Particularly striking”.

Take `CO[C@]12C=C[C@](C)(O1)[C@@H](OC(=O)/C=C/c1cn(C)cn1)C[C@H]1C(C)=CC[C@H](C(C)C)[C@H]1/C=C\2C(=O)OCc1c2ccccc2cc2ccccc12` [Compound 920]: in the series on tubulin, the “tubulin polymerization properties / potencies” value is reported as “modest”. The “biological activity … SAR statement” value in series [1] is given as “equal or superior biological activities”. Also, in series [3], the “cytotoxicity / biological activity” value is “Particularly striking”.

In the case of `COC(=O)/C1=C/[C@@H]2[C@@H](C(C)C)CC=C(C)[C@@H]2C[C@H](OC(=O)/C=C/c2ccccc2)[C@]2(C)C=C[C@@]1(OC)O2` [Compound 990], in series [1], the “biological activity … SAR statement” value is reported as “only negligible biological activity”.

`COC(=O)/C1=C/[C@@H]2[C@@H](C(C)C)CC=C(C)[C@@H]2C[C@H](OC(=O)Nc2ccccc2)[C@]2(C)C=C[C@@]1(OC)O2` [Compound 1010]: the “biological activity … SAR statement” value in series [1] is given as “complete loss of activity”.

Regarding `COC(=O)/C1=C/[C@@H]2[C@@H](C(C)C)CC=C(C)[C@@H]2C[C@H](OC(C)=O)[C@]2(C)C=C[C@@]1(OC)O2` [Compound 1070], in series [1], the “biological activity … SAR statement” value was “complete loss of activity”.

In the case of `CO[C@]12C=C[C@](C)(O1)[C@@H](OC(=O)/C=C/c1cn(C)cn1)C[C@H]1C(C)=CC[C@H](C(C)C)[C@H]1/C=C\2CO[C@@H]1OC[C@@H](O)[C@@H](O)[C@@H]1OC(C)=O` [eleutherobin], the “biological activity … SAR statement” value in series [1] is “potent biological actions”.
